Patent publication US20230133064A1, “T CELL MANUFACTURING PROCESS” (Adaptimmune Limited, priority 2020, published 2023)

Legend:
Format in all cases: cell-based, human
T cells [1] = assay: T cell expansion in G-Rex static culture, TNC counts at day 10 harvest (ViCELL)
Text: (§1) All cells were expanded and transduced, using a static expansion system, (scalable G-Rex®). Cryopreserved leukapheresis starting materials from healthy donors or cancer patients were thawed, washed, activated with CD3/CD28 magnetic Dynabeads, and CD3+ positive fraction was magnetically separated. The starting leukapheresis material was similar across the healthy donors. CD3+ cells ranged from 44-64%, all with an increased purity of 79-87% following positive isolation using anti CD3/CD28 Dynabeads. CD3+ phenotyping identified a range of stem cell memory (SCM) markers (CCR7+/CD45RA+) ranging from 11.6-57% in the CD8+ compartment between individuals. Enriched CD3+ T cells were seeded based on total nucleated cell (TNC) counts at 1.5×10^6 TNC/cm^2 density in the G-Rex® static cell expansion system device, in 10% of final culture volume using TexMACS+5% human AB serum (HABS) supplemented with 100 IU/ml IL-2. Transduction with vector expressing a heterologous TCR (recognising MAGE-A4) was performed 18-26 hours post addition of CD3/CD28 Dynabeads to the cells, using lentivirus (LV) vector at a MOI of 0.45. Media was then added to top up to the final culture volume, this was performed 17-24 hours post transduction with TexMACS+5% HABS+500 IU/ml IL-2. Cells were then incubated at 37° C., 5% CO2 for a further 8 days. MK-2206 was added to the media at defined intervals; in day 0 seeding media and supplemented in media used for day 2 media addition, or solely supplemented in media for day 2 media addition. The concentration of the compound varied for each experiment, 10 uM, 7.5 uM, 5 uM, 2.5 uM, 2 uM, 1.5 uM, 1 uM, 0.5 uM, 0.25 uM, 0.1 uM, 0.05 uM as dictated in the following examples. T cells were harvested 10 days post seeding. After bead removal, T-cells were counted by automated cell analysis (with ViCELL). Harvested cells were then frozen for later phenotypic and functional analysis as described.
Healthy donor material (leukapheresis material comprising white blood cells separated from a donor sample of blood) was processed for culture in static expansion (G-Rex device) following the aforementioned process for a 10 day duration. The cells were cultured with MK-2206 (1.25, 2.5, 5.0, 10 uM) added to cultures on day 0+day 2 or day 2 alone (with the day 2 media addition). On harvest, Total Nucleated Cell (TNC) counts were performed using an automated cell counter (ViCELL) to provide expansion data, and flow cytometry performed to determine phenotype. The harvested cultures were frozen and later thawed for functional assessment, an antigen stimulated cytokine release assay (1.3 described above).
The concentration of MK-2206 was tested in further titratration from 0.05 to 10 uM to fully determine optimal dosing and day 0(+2) and day 2 alone are both assessed to determine the optimal time of addition. Again, expansion, phenotype and cytokine production data has been assessed. An additional four donors were tested at the varying concentrations, to provide a full titration range in this study, 10 uM to 0.05 uM. All donors were tested in 10 M G-Rex following the described process and were harvested on Day 10. Expansion data considered the timepoint of addition of MK-2206; Day 0+2 and Day 2 alone.

T cells [2] = assay: Memory phenotype flow cytometry (CCR7/CD45RA) of transduced CD8+ T cells at day 10 harvest
Text: as §1, with “[…]).” for “ViCELL).”, “described. Flow cytometry was performed on healthy donor material on day 10 harvest from the described process to determine Memory Phenotype markers of cultured cells using CCR7 and CD45RA staining” for “described.”

[3] = test system: T-cells stimulated with MAGEA4-positive cell line A375; assay: Antigen-stimulated IFNγ release by ELISA, expanded T-cells co-cultured with A375 for 48 hours
Method: Function of expanded T-cells was evaluated based on the levels of cytokine release by expanded T-cells following antigen-stimulation with the MAGEA4-expressing cell line, A375. A375 MAGEA4 positive target cells were counted using automated cell counter and seeded in a 96 well U-bottom plate at 30,000 viable nucleated cells (VNC) per well, in 100 uL volume per well, one day prior to T-cell stimulation and incubated overnight at 37° C., 5% CO2. Wells that were used as “T cells alone” control, received 100 uL R10 media (RPMI medium with 10% FBS and 1% Penicillin/Streptomycin) only. Following overnight incubation of target cells, harvested and frozen T-cells were thawed at 37° C. in the water bath and washed with R10 media. Cells were rested in R10 media at a density of 2×10^6 VNC/mL for 2 hours at 37° C., 5% CO2. After 2-hour rest, T-cells were counted using automated cell counter, and cultures were normalised to 35% transduction efficiency for all donors combining calculated amount of transduced and non-transduced VNC for each condition. […] Colorimetric read-out was analysed (BMG LABTECH FLUOstar Omega plate reader) at OD 450. […] For the cytokine release assays, the target and effector cells were co-cultured for 48 hours then the supernatants were collected and analysed for IFN gamma levels by ELISA. […]

[4] = Day 0+2 addition, all concentrations 0.05-10 uM, across donors, FIG. 3A

Q: For `NC1(c2ccc(-c3nc4ccn5c(=O)[nH]nc5c4cc3-c3ccccc3)cc2)CCC1` [MK-2206], which “expansion (TNC counts)” value (T cells [1]; 10 uM, all timepoints for addition, FIG. 2) is on record?
A: reduced expansion

Q: And the TNC yield (T cells [1]; Day 0(+2) addition, FIG. 2)?
A: low yield

Q: And the “limit of expansion decrease (fold change to untreated control)” value (T cells [1]; [4])?
A: 0.15 fold

Q: What about the “limit of expansion increase (fold change to untreated control)” value (T cells [1]; [4]) of the same compound?
A: 1.5 fold

Q: And the impact on expansion (T cells [1]; Day 2 addition, 0.05-10 uM, FIG. 3B)?
A: no negative impact on expansion

Q: And the “concentration providing peak expansion” value (T cells [1]; Day 2 addition, 3 donors, FIG. 3B)?
A: 0.5 µM

Q: What about the “expansion response relative to control” value (T cells [1]; Day 2 addition, all conditions, FIG. 3B) of the same compound?
A: 1-2 fold

Q: What about the T cell expansion (T cells [1]; MK-2206 added on Day 2, after activation on day 0 and transduction on day 1) of the same compound?
A: Improved T cell expansion

Q: What about the TNC yield (T cells [1]; day 2 alone addition, with exception of 10 uM, FIG. 2) of the same compound?
A: improved TNC yield

Q: What about the “expansion (TNC counts) compared to the untreated control” value (T cells [1]; healthy donor material, lower concentrations of MK-2206 (1.25-10 uM tested), day 10 harvest, FIG. 2) of the same compound?
A: increased expansion

Q: And the “CCR7+CD45RA+ populations at harvest compared to the untreated control” value (T cells [2]; added on day 0+2 and day 2 alone, CD3+/Dextramer+/CD8+ compartment, FIG. 4)?
A: increased

Q: And the “EMRA population versus untreated control” value (T cells [2]; all concentrations tested)?
A: remains similar to the untreated control

Q: And the CD62L expression (T cells [2]; cells cultured with MK-2206)?
A: increase

Q: And the “CCR7−CD45RA− effector memory (EM) populations” value (T cells [2]; cells cultured with MK-2206, FIG. 4)?
A: decrease

Q: What about the “IFN gamma production following antigen stimulation versus untreated control” value ([3]; day 2 addition of MK-2206, FIG. 5) of the same compound?
A: highest increase

Q: What about the “IFN gamma production following antigen stimulation” value ([3]; increasing MK-2206 concentration, >5 uM, FIG. 5) of the same compound?
A: decrease
